The numbers were not newly measured in patent US7696242B2, “Hepatitis C inhibitor peptide analogs” (Boehringer Ingelheim International GmbH, priority 2004, dated 2010), which cites them from elsewhere.

The series has as its system hepatitis C virus. The conditions noted are these: two day clinical trial, patients infected with the hepatitis C virus.

On to `COc1ccc2c(O[C@@H]3C[C@H]4C(=O)N[C@]5(C(=O)O)C[C@H]5/C=C\CCCCC[C@H](NC(=O)OC5CCCC5)C(=O)N4C3)cc(-c3csc(NC(C)C)n3)nc2c1` [BILN 2061], for which the “reduction of viral loads in patients” value is reported as “effective in rapidly reducing viral loads”.
